According to patent publication US20070259844A1, “Antiviral Compositions And Methods Of Using The Same” (VGX PHARMACEUTICALS, priority 2003, published 2007):

Columns and labels:
[1] = system: HCV RNA-replicating cell line AVA5; assay: Primary in vitro anti-HCV screen, intracellular HCV RNA levels in AVA5 cells; format: cell-based
Experimental: (§1) The antiviral activity of test compounds are assayed in the stably HCV RNA-replicating cell line, AVA5, derived by transfection of the human hepatoblastoma cell line, Huh7 (Blight, et al., 2000, Sci. 290:1972). Compounds are added to dividing cultures once daily for three days (media is changed with each addition of compound). Cultures generally start the assay at 50% confluence and reach confluence during the last day of treatment. Intracellular HCV RNA levels and cytotoxicity are assessed 24 hours after the last dose of compound.
(§2) Assays are conducted using a single dose of test compound. Replicate cultures for HCV RNA levels (on 48-well plates) and triplicate cultures for cytoxicity (on 96-well plates) are used.
Intracellular HCV RNA levels are measured using standard blot hybridization (Korba & Gerin, 1992, Antivir. Res. 19:55) using triplicate cultures. HCV RNA levels in the treated cultures are expressed as a percentage of the mean levels of RNA detected in untreated cultures. Levels of β-actin RNA are used to normalize HCV RNA levels in each sample.

[2] = Cytotoxicity in the anti-HCV screen (AVA5 cultures); format: cell-based, human; conditions: human, AVA5 cells (stably HCV RNA-replicating, derived from Huh7); toxicity control, AVA5 cells, once daily for three days; read-out: approximate CC90
Experimental: as §1, §2

[3] = system: AVA5 cells (derived from human hepatoblastoma cell line Huh7); assay: as above; format: cell-based; conditions: 10 IU/ml
Experimental: as §1, §2

[4] = biological target: T1, human glucocorticoid receptor (Homo sapiens, UniProt P04150); conditions: cited from earlier work
T1 sequence (P04150 1-777): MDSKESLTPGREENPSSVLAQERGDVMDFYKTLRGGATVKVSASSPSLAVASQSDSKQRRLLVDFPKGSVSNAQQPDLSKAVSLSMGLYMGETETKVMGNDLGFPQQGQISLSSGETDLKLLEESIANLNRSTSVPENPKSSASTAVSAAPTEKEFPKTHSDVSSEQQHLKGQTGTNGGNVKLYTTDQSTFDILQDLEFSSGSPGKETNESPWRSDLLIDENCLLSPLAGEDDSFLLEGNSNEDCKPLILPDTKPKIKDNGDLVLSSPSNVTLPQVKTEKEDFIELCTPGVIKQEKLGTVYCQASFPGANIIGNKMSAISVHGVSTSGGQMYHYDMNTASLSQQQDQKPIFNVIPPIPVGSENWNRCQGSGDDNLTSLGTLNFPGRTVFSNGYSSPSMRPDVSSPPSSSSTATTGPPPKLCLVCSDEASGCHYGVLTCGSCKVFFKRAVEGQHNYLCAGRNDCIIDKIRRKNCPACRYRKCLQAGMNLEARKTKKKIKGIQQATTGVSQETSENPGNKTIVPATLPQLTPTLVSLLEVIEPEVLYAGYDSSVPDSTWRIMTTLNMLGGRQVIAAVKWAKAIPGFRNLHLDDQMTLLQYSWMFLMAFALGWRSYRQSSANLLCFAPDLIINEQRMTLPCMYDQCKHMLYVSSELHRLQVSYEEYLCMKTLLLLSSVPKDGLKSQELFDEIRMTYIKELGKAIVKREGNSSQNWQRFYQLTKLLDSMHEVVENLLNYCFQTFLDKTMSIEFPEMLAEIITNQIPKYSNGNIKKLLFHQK

For `NC(=O)c1ncn([C@@H]2O[C@H](CO)[C@@H](O)[C@H]2O)n1` [ribavirin, reference compound], which “antiviral activity at the CC90” value ([1]; 100 μM) is on record?
Its value is “no antiviral activity”.

What about the CC90 at 3 days [2] of the same molecule?
Its CC90 at 3 days is ~100 µM.

What does the source list for α-interferon?
approximate EC90 ([1]; positive antiviral control, AVA5 cells, once daily for three days): ~10 IU/ml; cytotoxicity at the EC90 [3]: no cytotoxicity

For `C[C@]12CCC(=O)C=C1CC[C@@H]1[C@@H]2[C@@H](O)C[C@@]2(C)[C@H]1CC[C@]2(O)C(=O)CO` [cortisol, reference compound], which “relative binding affinity to the human glucocorticoid receptor” value [4] is on record?
The value was 23%.
